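Compound exposure: 48 hours, 5 concentrations, 96-well plates. At the GI50, growth is halved.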 The source made the active and inactive calls. No stated cut-off is given here; in the data, active = GI50 up to about 1.1 µM and inactive = higher. Where only a bound is given, the exact number is not on record here.

Among the test systems are HL-60; OVCAR-8; NCI-H226; CCRF-CEM; HCC 2998; UO-31; U-251; SF-268; SNB-75; SN12C; LXFL 529; 786-0; SK-MEL-28; SF-539; SR; EKVX; IGROV-1.
Assay in all cases: DTP human tumour cell line panel, 48 h

As to `COc1ccc(OC)c(-c2cc(O)c3cc4c(cc3n2)OCO4)c1`, the GI50 is 2.96 µM (inactive) in the assay on HL-60; 9.59 µM (inactive) in the assay with OVCAR-8; 7.38 µM (inactive) with NCI-H226; 4.36 µM (inactive) with CCRF-CEM; 4.67 µM (inactive) in the assay with HCC 2998; 19.8 µM (inactive) in the assay on UO-31. Moreover, the GI50 in the assay with U-251 was 7.59 µM (inactive); with SF-268, 7.74 µM (inactive); in the assay with SNB-75, 3.44 µM (inactive); in the assay on SN12C it was 6.79 µM (inactive); in the assay with LXFL 529 it was 6.92 µM (inactive); with 786-0, 6.47 µM (inactive). In addition, the GI50 in the assay on SK-MEL-28 is 5.87 µM (inactive); in the assay on SF-539 it was 5.7 µM (inactive); in the assay with SR, 3.96 µM (inactive); in the assay with EKVX, 37.4 µM (inactive); in the assay with IGROV-1 it was 10.5 µM (inactive).

For the compound `Oc1cc(-c2cccs2)nc2cc3c(cc12)OCO3`, the GI50 in the assay on HL-60 was 4.37 µM (inactive); with OVCAR-8, 4.66 µM (inactive); with NCI-H226 it was 4.32 µM (inactive); in the assay with CCRF-CEM, 3.66 µM (inactive); in the assay on HCC 2998, 7.13 µM (inactive); in the assay on UO-31, 4.69 µM (inactive). Moreover, the GI50 in the assay on U-251 was 7.43 µM (inactive); with SF-268, 6.43 µM (inactive); with SNB-75, 1.41 µM (inactive); in the assay with SN12C, 6.76 µM (inactive); in the assay with LXFL 529, 4.79 µM (inactive); in the assay on 786-0, 3.78 µM (inactive). Further, the GI50 in the assay with SK-MEL-28 is 9.33 µM (inactive); in the assay with SF-539, 3.7 µM (inactive); in the assay with SR, 4.73 µM (inactive); in the assay on EKVX, > 62.7 µM (inactive); in the assay on IGROV-1, 3.37 µM (inactive).

For `COc1cc(C2=NN(C)C(c3ccc([N+](=O)[O-])o3)C2)cc(OC)c1OC` (stereo unspecified), the GI50 was 18.2 µM (inactive) with HL-60; > 100 µM (inactive) in the assay on OVCAR-8; > 100 µM (inactive) with NCI-H226; 22.2 µM (inactive) in the assay with CCRF-CEM; > 100 µM (inactive) with HCC 2998; 72.1 µM (inactive) with UO-31. Besides, the GI50 with U-251 is 56.8 µM (inactive); with SF-268, > 100 µM (inactive); with SNB-75 it was 83.2 µM (inactive); in the assay with SN12C it was 83.8 µM (inactive); in the assay on LXFL 529 it was 38.5 µM (inactive); in the assay on 786-0, 23.1 µM (inactive). Moreover, the GI50 in the assay with SK-MEL-28 is 79.8 µM (inactive); in the assay with SF-539, 49.7 µM (inactive); in the assay on SR it was 0.0736 µM (active); in the assay on EKVX, > 100 µM (inactive); in the assay on IGROV-1, > 100 µM (inactive).

As for `COc1c(OC(C)=O)cc2c(OC(C)=O)c1CC(C)CC(OC)C(O)C(C)/C=C(\C)C(OC(N)=O)C(OC)/C=C\C=C(/C)C(=O)N2` (stereo unspecified), the GI50 was > 41.5 µM (inactive) in the assay with HL-60; > 65 µM (inactive) in the assay with OVCAR-8; > 100 µM (inactive) in the assay on NCI-H226; > 53.5 µM (inactive) in the assay on CCRF-CEM; 36.5 µM (inactive) in the assay on HCC 2998; > 83.6 µM (inactive) in the assay on UO-31. The GI50 in the assay with U-251 was > 100 µM (inactive); with SF-268, > 100 µM (inactive); in the assay with SNB-75, > 100 µM (inactive); with SN12C, 69.5 µM (inactive); in the assay on LXFL 529, 49 µM (inactive); in the assay on 786-0, > 81.3 µM (inactive). The GI50 in the assay on SK-MEL-28 was > 100 µM (inactive); in the assay with SF-539 it was > 100 µM (inactive); with SR, > 44.2 µM (inactive); in the assay with EKVX, > 100 µM (inactive); in the assay on IGROV-1, > 100 µM (inactive).

As to `CCc1cc(Cc2cc(CC)c(NC(=O)C(=O)Cc3ccccn3)c(CC)c2Cl)c(Cl)c(CC)c1NC(=O)C(=O)Cc1ccccn1`, the GI50 in the assay with HL-60, in the assay with OVCAR-8, with NCI-H226, with CCRF-CEM, with HCC 2998 and in the assay with UO-31 was > 100 µM (inactive) in each case. Also, the GI50 with U-251 is 19.4 µM (inactive); in the assay on SF-268, > 100 µM (inactive); with SNB-75, > 100 µM (inactive); with SN12C, > 100 µM (inactive); in the assay on LXFL 529, 53 µM (inactive); in the assay on 786-0, > 100 µM (inactive). Also, the GI50 with SK-MEL-28, in the assay with SF-539, with SR, in the assay with EKVX and in the assay with IGROV-1 was > 100 µM (inactive) each time.

Consider `COc1cc(C(=O)N2CCc3c([nH]c4c([N+](=O)[O-])c(OC)ccc34)C2C)cc(OC)c1OC` (stereo unspecified), for which the GI50 in the assay with HL-60, in the assay with OVCAR-8, in the assay with NCI-H226, in the assay on CCRF-CEM, in the assay with HCC 2998 and in the assay on UO-31 was > 100 µM (inactive) each time. The GI50 is > 100 µM (inactive) in the assay on U-251; 29.8 µM (inactive) in the assay with SF-268; 40.8 µM (inactive) in the assay on SNB-75; > 100 µM (inactive) with SN12C; > 100 µM (inactive) in the assay with LXFL 529; > 100 µM (inactive) in the assay with 786-0. For the same compound, the GI50 in the assay with SK-MEL-28 was > 100 µM (inactive); in the assay on SF-539 it was 89.1 µM (inactive); in the assay with SR, > 100 µM (inactive); with EKVX, > 100 µM (inactive); in the assay on IGROV-1 it was 8.11 µM (inactive).

Consider `CCOC(=O)C1C(=O)c2ccccc2CN1Cc1ccccc1` (stereo unspecified), for which the GI50 in the assay on HL-60, with OVCAR-8, in the assay on NCI-H226, with CCRF-CEM, in the assay with HCC 2998 and in the assay with UO-31 was > 100 µM (inactive) each time. Also, the GI50 with U-251, in the assay with SF-268, in the assay with SNB-75, with SN12C, with LXFL 529 and in the assay with 786-0 was > 100 µM (inactive) each time. Besides, the GI50 in the assay with SK-MEL-28, in the assay with SF-539, in the assay on SR, in the assay on EKVX and with IGROV-1 was > 100 µM (inactive) each time.

With `COc1ccc(OC)c(NC(=O)CCC/C(CC(=O)c2ccc(O)c(OC)c2)=N\Nc2nnc(C)n2N)c1`, the GI50 in the assay with HL-60 was 90.2 µM (inactive); in the assay with OVCAR-8 it was > 100 µM (inactive); in the assay on NCI-H226 it was > 100 µM (inactive); in the assay with CCRF-CEM, > 100 µM (inactive); in the assay on HCC 2998, > 100 µM (inactive); with UO-31, > 100 µM (inactive). Further, the GI50 is > 100 µM (inactive) with U-251; > 100 µM (inactive) in the assay on SF-268; 37.9 µM (inactive) in the assay on SNB-75; > 100 µM (inactive) in the assay on SN12C; > 100 µM (inactive) in the assay with LXFL 529; > 100 µM (inactive) in the assay with 786-0. For the same compound, the GI50 with SK-MEL-28, with SF-539, with SR, with EKVX and with IGROV-1 was > 100 µM (inactive) each time.

In general, GI50 refers to the concentration giving 50% growth inhibition.

Values taken from ChEMBL document CHEMBL1201862, “PubChem BioAssay data set” (2004).
